The text below walks through data of PubChem BioAssay AID179 (DTP/NCI, 2004).

Calls of active or inactive are those of the source.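 The calls were made as follows: active = compounds giving half or more protection of infected cells from virus-caused growth loss, again on retest; inactive = the rest.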 Where only a bound is given, the exact number is not on record here.

This assay has as its system CEM cells HIV-1 protection, formazan growth assay. Description: NCI AIDS Antiviral Assay. The note with it: for IC50: measured here: growth of uninfected CEM cells. In a few lines: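 Protection of CEM cells against HIV-1 was scored from cell growth (soluble formazan) across five concentrations, with parallel uninfected cells. Lack of protection may reflect toxicity.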

As a reminder, the EC50 is the concentration needed to bring the measured effect to its halfway point. As a reminder, the IC50 is the concentration needed to halve the response being measured. Low values mean greater potency, high ones weaker potency. Consider `CNC(=S)NNC1=NCCCN1`, for which the EC50 is > 200 µM and the IC50 was > 200 µM.
As to `N/N=C(\CCN1CCCC1)CC(c1ccccc1)c1c(O)c2ccccc2oc1=O` (stereo not given), the EC50 is > 58.9 µM and the half-maximal inhibitory concentration (IC50) was > 58.9 µM.
Regarding `C=C(CBr)CCCOCc1ccccc1`, the EC50 was > 200 µM and the IC50 amounted to 105 µM.
On to `CC1=CC(C)(C)Nc2ccc(OC(=O)/C=C(C)/C=C/C=C(C)/C=C/C3=C(C)CCCC3(C)C)cc21`, for which the EC50 was > 200 µM and the IC50 worked out at 27.5 µM.
`Cc1ccc(N2C(=O)/C(=C3\Sc4c(nc(C)[nH]c4=O)N3c3ccccc3)SC2=S)cc1`: the EC50 is > 4.07 µM and the IC50 was > 4.07 µM.
For the molecule `COC1OCC(SC(=O)c2ccccc2)C(O)C1O` (stereo not given), the EC50 is > 200 µM and the IC50 was found to be 141 µM.
On the same counts, the results for `CC1SC2=NC3=C(c4ccccc4C3=O)C(c3ccccc3Cl)N2C1=O` (stereo not given) are > 35.5 µM and > 35.5 µM.
Consider `COc1cc(C2c3cc4c(cc3[C@H](NC(=O)c3cccs3)C3COC(=O)[C@H]23)OCO4)cc(OC)c1OC` (stereo not given in full), for which the outcome was inactive.
In the case of `CN1C/C(=C\c2cccs2)C2=NN(c3ccccc3)C(c3cccs3)C2C1` (stereo not given), the EC50 was > 200 µM and the IC50 was 10.7 µM.
Consider `COc1ccccc1C1OC(c2ccccc2OC)C2CCN(C)C2(C)O1` (stereo not given), for which the EC50 is > 200 µM and the half-maximal inhibitory concentration (IC50) is > 200 µM.
Consider `CN(C(=O)c1ccco1)C(=S)N1CCN(c2ccccn2)CC1`, for which the EC50 was > 398 µM and the IC50 stood at 209 µM.
As to `O=C(c1ccc(S(=O)(=O)c2ccccc2)cc1)c1ccc(S(=O)(=O)c2ccccc2)cc1`, the EC50 is > 200 µM and the IC50 was > 200 µM.
Consider `O=[N+]([O-])c1ccc(Sc2ccc([N+](=O)[O-])cc2)cc1`, for which the outcome was inactive.
As for `O=C(CP(=O)(O)O)c1cccs1`, the EC50 was > 1200 µM and the IC50 was > 1200 µM.
With `CCOC(=O)/C(C#N)=C/c1cccc(F)c1`, the EC50 was > 162 µM and the IC50 was > 162 µM.
Take `COc1ccc([C@@H]2CC(=O)NCCCCNCCCN2)cc1`: the EC50 was > 200 µM and the IC50 was > 200 µM.
In the case of `CCC12OC(COc3ccccc3)CN1CCS2` (stereo not given), the EC50 is > 257 µM and the IC50 is 132 µM.
On the same counts, the results for `CN(C)CC1CCC/C(=C\c2ccc(OC(=O)/C=C/c3ccc(Cl)c(Cl)c3)cc2)C1=O` (stereo not given) are > 100 µM and 1.45 µM.
On the same counts, the results for `Cc1ccc(C)c(NC(=O)c2cc(-c3ccc([N+](=O)[O-])cc3)nc(N)n2)c1` are > 70.8 µM and > 70.8 µM.
On to `CCOC(=O)C1=NN(c2ccccc2)C(=O)/C1=C\N1C(=O)/C(=C/c2cccc(OC)c2O)SC1=S`, for which the EC50 is > 100 µM and the IC50 is 53.7 µM.
On to `O=S(=O)(c1ccccc1)c1cccc2c1NCCC2`, for which the EC50 was 21.9 µM and the IC50 came to 95.5 µM.
On the same counts, the results for `C/C(=N\OC(=O)Nc1ccccc1)c1ccccc1` are > 200 µM and 132 µM.
In the case of `C=CCC1CC(n2cc(C)c(=O)[nH]c2=O)OC1CO[Si](C)(C)C(C)(C)C` (stereo not given), the EC50 is > 200 µM and the IC50 stood at 18.2 µM.
For `C#CC1(O)CCC2[C@@H]3CCc4cc(Oc5nc(F)nc(-c6c(C)c(C(=O)OCC)n7ccccc67)n5)ccc4C3CC[C@@]21C` (stereo not given in full), the EC50 was > 100 µM and the IC50 was > 100 µM.
For `C/C(=N\NC(=S)NNC(=S)N(C)c1ccccc1)c1ccccn1`, the EC50 is > 52.5 µM and the IC50 was determined as 0.427 µM.
For the molecule `CC(CO)CCNc1ncnc2c1ncn2CCC(=O)O` (stereo not given), the EC50 is > 200 µM and the IC50 is > 200 µM.
In the case of `Cn1cc(NC(=O)c2cc(NC(=O)c3cc(NC(=O)/C=C/C(=O)Nc4cn(C)c(C(=O)Nc5cn(C)c(C(=O)Nc6cn(C)c(C(=O)NCCC(=N)N)n6)n5)n4)cn3C)cn2C)cc1C(=O)NCCC(=N)N`, the EC50 is > 7.76 µM and the IC50 is 1.45 µM.
On the same counts, the results for `CCCCCCCCCCCC1=c2o[nH]c2=C(c2ccccn2)C(=O)C1=O` are > 19.5 µM and > 19.5 µM.
In the case of `O=C(CSc1nnc(-c2ccc(N=Cc3ccc(Cl)cc3)cc2)o1)Nc1ccccc1`, the EC50 is > 112 µM and the IC50 was found to be 42.7 µM.
Regarding `CC(C)=C1CC(C)(C)N=C1CCC1=NC(C)(C)CC1=C(C)C`, the EC50 was > 50.1 µM and the IC50 was determined as 28.2 µM.
For `Cn1c(=O)cc(/C=C/c2ccnc3ccccc23)c2ccccc21`, the EC50 was > 200 µM and the IC50 was > 200 µM.
For the molecule `O=C(O/N=C1/CCC/C1=C\c1ccccc1)c1ccccc1`, the outcome was inactive.
In the case of `COC(=O)C1=NC(=S)NC(c2ccccc2)C1c1nc2ccccc2s1` (stereo not given), the outcome was inactive.
For the molecule `COc1cc(C=Nc2ccc(Oc3ccc(Cl)cc3)c(Cl)c2)cc(OC)c1OC`, the EC50 was > 200 µM and the 50% inhibitory concentration (IC50) came out at 30.9 µM.
As for `CSc1nc(N)c2c(n1)NCNS2(=O)=O`, the EC50 is > 1000 µM and the IC50 was > 1000 µM.
As to `OC12OC3(c4ccc(C(F)(F)F)cc4)C4C5CC(C6C5C3C61)C42` (stereo not given), the result was inactive.
On to `Cc1ccc(Sc2ccccc2[N+](=O)[O-])cc1`, for which the outcome was inactive.
On to `C=CCN1CCC(OC(=O)C(O)(/C=C\CC)C2CCCC2)CC1` (stereo not given), for which the EC50 was > 200 µM and the IC50 is > 200 µM.
With `Nc1ccc(-c2cc3ccccc3[nH]2)cc1`, the EC50 was > 148 µM and the IC50 was found to be 117 µM.
In the case of `CN(C(=O)Cc1ccccc1)n1cn[n+](CC(=O)OC(C)(C)C)c1`, the EC50 is > 200 µM and the IC50 is > 200 µM.
Take `Cn1nc2ccc([N+](=O)[O-])c(Cn3nnc4ccccc43)c2n1`: the EC50 is > 200 µM and the IC50 was 58.9 µM.
Regarding `O=C(Nc1nc(-c2ccccc2)cs1)OCC(Cl)(Cl)Cl`, the EC50 is > 200 µM and the half-inhibitory concentration (IC50) is 4.47 µM.
As to `O=S1Nc2c(Cl)cc(Cl)c(Cl)c2S1` (stereo not given), the EC50 was > 129 µM and the IC50 is > 129 µM.
With `CN(C)CCCNC(=O)c1c(O)c2ccccc2[nH]c1=O`, the EC50 was > 200 µM and the IC50 is > 200 µM.
As to `N#CCCN(c1ccc(C=Nc2cccc([N+](=O)[O-])c2)cc1)S(=O)(=O)c1ccccc1`, the result was inactive.
As for `COC(=O)C(=O)C(C#N)c1cccc2ccccc12` (stereo not given), the outcome was inactive.
Consider `CCCCCCSc1nc(COC(=O)NC)c(COC(=O)NC)n1C`, for which the EC50 was > 200 µM and the IC50 was > 200 µM.
As for `CCOP(=O)(OCC)/C(=C\n1c(=S)[nH]c2cc(C)ccc21)C(=O)OC`, the EC50 was > 200 µM and the IC50 is > 200 µM.
`NNc1nc2ccccc2c(=O)n1NC(=O)C(=O)Nc1cccc(C(F)(F)F)c1`: the EC50 is > 324 µM and the IC50 was > 324 µM.
`CC1=CC(O)(c2ccccc2)C(N2CCOCC2)N1O` (stereo not given): the EC50 was > 200 µM and the IC50 was > 200 µM.
In the case of `O=C1c2c(O)cc(O)c(OC3OC(CO)C(O)C(O)C3O)c2OC(c2ccc(O)c(O)c2)C1O` (stereo not given), the EC50 is > 513 µM and the IC50 amounted to 57.5 µM.
Consider `COc1ccc(Br)cc1-c1cc(Br)ccc1OC`, for which the EC50 is > 200 µM and the IC50 came to 12.6 µM.
On the same counts, the results for `CC(=O)C(N=Nc1nccs1)C(C)=O` are > 200 µM and 55 µM.
For `Nc1ccc(S(=O)(=O)Nc2cnc3c(Cl)cccc3n2)cc1`, the EC50 is > 537 µM and the half-inhibitory concentration (IC50) came to 6.46 µM.
